US11524041B2, “Ginkgo diterpene lactone composition” (Jiangsu Kanion Pharmaceutical Co., Ltd., priority 2017, dated 2022)
Structures can show the parent of a compound that is named as a salt.

Assays:
Format in all cases: in vivo
[1] = test system: level of oxidative stress of rats; assay: Detection of oxidative stress in serum of rats given alcohol; details: rat serum, alcohol 6 g/kg daily, compositions 3 mg/kg iv, edaravone 6.25 mg/kg iv, daily for 5 weeks, n = 10
Protocol: 2.1 Modeling and administration: Healthy male rats were selected and randomly divided into normal group, model group, positive drug group and Ginkgo diterpene lactone composition groups A-K, With the exception of the normal group, the other groups were orally administrated with alcohol with a daily dose of 6 g/kg. Rats in the positive drug group were administrated with edaravone injection (iv) in a daily dose of 6.25 mg/kg, and rats in the Ginkgo diterpene lactone composition groups A-K were administrated in a daily dose of 3 mg/kg (iv), they were continuously administrated or given alcohol for 5 weeks.
2.2 Detection of oxidative stress: After the administration, rats in each group were anesthetized with 10% chloral hydrate, abdominal aortic blood was collected and then subjected to heparin anticoagulation to separate serum; changes of MDA, SOD, GSH and TAC levels in the serum were detected according to the instructions of the kits, and the protein content of each sample was measured using the BCA protein test kit.
2.3 Statistical analysis: The data are expressed as (x±s). All data are analyzed by one-way ANOVA using SPSS 19.0 software to determine the significance of the difference.

mice = assay: Forced swimming experiment for mice; details: compositions 9 mg/kg ig, imipramine 50 mg/kg oral, once a day for 5 days, difference of immobility times, X ± S
Protocol: 2.2 Forced swimming experiment for mice: Male mice weighing 20-24 g were selected, grouped and administered in the same manner as in Section 2.1. The experiment was started 30 minutes after the fifth administration. The mice were placed in a graduated cylinder (20 cm in height and 14 cm in diameter) with 30° C. water in the depth of 10 cm. The difference between the two immobility times of the mice themselves were calculated and then statistical analysis was conducted after Ig (X++45) conversion.
(§1) 2.4 Statistical analysis: The data are expressed as (x±s). All data are analyzed by one-way ANOVA using SPSS 19.0 software to determine the significance of the difference.

rats = assay: Electric shock avoidance experiment for rats (learned helplessness electric shock model); details: compositions 6.26 mg/kg ig, imipramine 33 mg/kg oral, once a day for 35 days, results of the fifth training, X ± S
Text: 2.3 Electric shock avoidance experiment for rats: The anti-depression effect of the drug was observed using a learned helplessness electric shock model. Healthy male rats weighing 180-220 g were selected and randomly divided into normal group, model group, positive drug group and Ginkgo diterpene lactone composition groups A-K, with 10 rats in each group. The rats in the […] were orally administered with the same normal saline every day; the rats in the positive drug group were orally administered with imipramine tablet in a daily dose of 33 mg/kg, and the rats in the Ginkgo diterpene lactone composition groups A-K were administered in a daily dose of 6.26 mg/kg (ig), once a day for 35 consecutive days. The experiment was started 30 minutes after the 30th administration. On the first day of the experiment, “helpless induction” was performed. […] The training was conducted for 5 days, and the number of successful escapes of each rat during training was recorded every day, and the results of the fifth training were counted.
as §1

[2] = n = 10, listed as imipramine, hydrochloride

Structure (SMILES)	MDA [1] [nmol/mg]	SOD [1] [U/mg]	TAC [1] [U/mg]	GSH ([1]; listed as edaravone injection)	MDA ([1]; listed as edaravone injection)	SOD ([1]; listed as edaravone injection)	TAC ([1]; listed as edaravone injection)	Swimming interval (X + 45) conversion (mice; n = 10, hydrochloride)	Swimming interval (X + 45) conversion (mice; [2])	Accumulative number of successful escapes (rats; n = 10, hydrochloride)	Accumulative number of successful escapes (rats; [2])
CC1=NN(c2ccccc2)C(=O)C1 [Edaravone, edaravone]	59.6 ± 20.6	769.5 ± 55.5	243.6 ± 0.9	significantly corrected	significantly corrected	significantly corrected	significantly corrected				
CN(C)CCCN1c2ccccc2CCc2ccccc21 [Imipramine, imipramine hydrochloride]								4.03 ± 0.05^	significantly prolonged	24.5 ± 1.5	significantly increased
